Measured values as given in patent US20050008686A1, “Cochleate preparations of fragile nutrients” (priority 2003, published 2005).
Values after ≈ are worked out from the molar mass of the structure shown. Read-outs that look alike come from different tables or passages of the source.

Test: solubility of beta-carotene in potential solvents
Assay type: physicochemical
Conditions: for solubility: organic solvent or mixture
From the text: The present invention is based, at least in part, on the discovery that one or more solvents such as tetrahydrofuran (THF), can be employed to form an improved cochleate with fragile nutrients such as beta-carotene at desirable concentrations. Suitable solvents and solvent mixtures that can be employed in connection with the present invention and can readily be identified by a person of skill in the art employing the teachings provided herein and knowledge in the art. For example, beta-carotene was added to a variety of potential solvents, and was found not soluble in either water or DMSO, and slightly soluble in methyl pyrrolidone (less than 1 mg/ml). Heptane also was considered, but heptane is not miscible with water and thus cannot readily be employed in the formation of cochleates. […] Similarly, solvents can be identified for other fragile nutrients and lipids in accordance with the present invention.

For CC1=C(/C=C/C(C)=C/C=C/C(C)=C/C=C/C=C(C)/C=C/C=C(C)/C=C/C2=C(C)CCCC2(C)C)C(C)(C)CCC1 [beta-carotene], the solubility (solvent methyl pyrrolidone, slightly soluble, read-out: solubility in methyl pyrrolidone) was < 1000 µg/mL, the solubility (solvent tetrahydrofuran (THF), read-out: solubility in THF) was 10000 µg/mL (≈ 18.6 mM) and the “solubility in DMSO” value (solvent DMSO) was “not soluble”. For the same molecule, the solubility in water (solvent water) was “not soluble”.
